Values of other authors as cited in patent EP0535567A1, “Liposomes containing volatile inhalation anaesthetics, their preparation and their use” (B. Braun Melsungen AG, priority 1991, dated 1993).

Settings: fraction of the anaesthetic that is metabolised

verstoffwechselt: < 2%
Compound: FC(F)OC(Cl)C(F)(F)F (stereo not shown) [Isofluran, 1-Chlor-2,2,2-trifluorethyl(difluormethyl)ether]
